The values that follow are results of earlier work, collected in patent US20180327482A1, “METHODS AND COMPOSITIONS FOR THE TREATMENT OF HCMV” (priority 2013, published 2018).

This series relates to cells latently infected with HCMV. The settings on record: Weekes et al., Science 340:199-202 (2013).

The structures appear in SMILES notation.

Take `CC[C@]1(O)C[C@H]2CN(CCc3c([nH]c4ccccc34)[C@@](C(=O)OC)(c3cc4c(cc3OC)N(C=O)[C@H]3[C@@](O)(C(=O)OC)[C@H](OC(C)=O)[C@]5(CC)C=CCN6CC[C@]43[C@@H]65)C2)C1` [Vincristine]: the “Elimination of cells latently infected with HCMV” value was “can be used therapeutically to eliminate cells latently infected with HCMV”.
